The values that follow come from patent US6569906B1, “Composition containing a precursor capable of being hydrolysed by glucocerebrosidase” (Pierre Fabre Dermo-Cosmetique, priority 1998, dated 2003).

Each structure is given as a SMILES string.

One data set addresses T1, glucocerebrosidase (Homo sapiens, UniProt P04062).
T1 construct: a freeze-dried cutaneous extract obtained after taking a sample by three successive strippings of 15 cm^2; from tissue; host or cells: stratum corneum (powdered, freeze-dried cutaneous extract from three successive strippings)
T1 sequence (P04062 40-536): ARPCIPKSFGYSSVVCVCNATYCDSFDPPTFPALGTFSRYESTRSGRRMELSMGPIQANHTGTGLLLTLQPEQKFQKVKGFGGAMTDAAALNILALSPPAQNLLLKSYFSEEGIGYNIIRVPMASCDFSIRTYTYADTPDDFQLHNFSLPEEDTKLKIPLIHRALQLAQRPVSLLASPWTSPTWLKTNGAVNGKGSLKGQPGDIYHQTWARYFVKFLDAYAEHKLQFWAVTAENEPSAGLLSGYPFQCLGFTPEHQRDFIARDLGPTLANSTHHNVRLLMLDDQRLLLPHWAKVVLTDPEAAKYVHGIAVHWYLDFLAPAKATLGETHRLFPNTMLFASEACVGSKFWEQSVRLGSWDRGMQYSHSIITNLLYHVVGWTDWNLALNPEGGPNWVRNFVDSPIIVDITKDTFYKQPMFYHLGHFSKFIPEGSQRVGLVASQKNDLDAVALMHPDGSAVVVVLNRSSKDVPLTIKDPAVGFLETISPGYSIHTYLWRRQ
The data set is described as follows: Kinetics of hydrolysis of glucosylated precursors by glucocerebrosidase of a stratum corneum extract. The format is biochemical. As to conditions: for Quantity of molecule released: phthalate buffer pH 5.6, 24 hours incubation, freeze-dried cutaneous extract, three strippings of 15 cm^2; for Release of the active agent from its glucosylated precursor: from the glucopyranoside precursor. Here is the method:
The precursor and the stratum corneum sample in powdered form are incorporated into a liquid medium buffered with a phthalate buffer at pH 5.6. The mixture is incubated for 24 hours and the quantity of active agent released is assayed by densitometry on a thin-layer chromatography plate.
The following table gives, for various glucosylated precursors, the quantity of molecule released following their hydrolysis by glucocerebrosidase over 24 hours by a freeze-dried cutaneous extract obtained after taking a sample by three successive strippings of 15 cm^2.

The nature of data set [1]: Antioxidant activity against the peroxidation of squalene, MDA as indicator.
Method: (§1) The concentration of MDA released is measured by complexing with thiobarbituric acid in an acidic medium. The chromogenic complex formed absorbs at 532 nm. Its quantification is monitored by fluorimetry.
The antioxidant activity of various compounds against the peroxidation of an unsaturated lipid, squalene, is measured.
Data set [2] in a line: MDA released in a cream with borage oil containing vitamin E after two hour solar exposure (thiobarbituric acid complex). The conditions noted are these: for Concentration of MDA released: two hour solar exposure.
Method: The concentration of malonaldehyde (MDA) released in a cream containing increasing quantities of an antioxidant, vitamin E (or alpha-tocopherol), which is subjected to an oxidative stress, is measured.
The cream containing vitamin E also contains borage oil which is naturally rich in linoleic acid. Oxidative stress consists in a two hour solar exposure.
as §1
The conditions of data set [3]: Nonirradiated; cream containing 0.4%.
From the text: The photostability of delta-tocopheryl-glucopyranoside and that of delta-tocopherol are compared.
Samples of a cream containing 0.4% of delta-tocopheryl-glucopyranoside or of delta-tocopherol are irradiated with a 28 J/cm^2 incident light of 290 to 800 nm (5 DEM).

For `CC(C)CCCC(C)CCCC(C)CCCC1(C)CCc2cc(OC3OC(CO)C(O)C(O)C3O)ccc2O1` (stereo not shown) [Tocol-glucopyranoside, tocol-glucopyranoside], the “Quantity of molecule released” value at glucocerebrosidase came out at 14.8 ± 1.2 n mol/hour. In addition, the “Quantity of MDA released” value in data set [1] came to 142 ± 28 μg MDA.
In the case of `OC[C@H]1OC(Oc2ccccc2)[C@H](O)[C@@H](O)[C@@H]1O` (stereo partly shown) [Phenylglucopyranoside], the “Quantity of molecule released” value on glucocerebrosidase is on record as 0.2 ± 0.5 n mol/hour.
Same read-out and setting: the result for `Cc1cc(=O)oc2cc(OC3O[C@H](CO)[C@@H](O)[C@H](O)[C@H]3O)ccc12` (stereo partly shown) [4-methylumbelliferyl-glucopyranoside, 4-methylumbelliferyl glucopyranoside] reads 100 ± 7 n mol/hour.
On the same count and under the same terms, the result for `Cc1c(C)c2c(c(C)c1OC1O[C@H](CO)[C@@H](O)[C@H](O)[C@H]1O)CCC(C)(CCCC(C)CCCC(C)CCCC(C)C)O2` (stereo partly drawn) [α-Tocopheryl-glucopyranoside] reads 0 n mol/hour; that for `Cc1c(OC2O[C@H](CO)[C@@H](O)[C@H](O)[C@H]2O)cc2c(c1C)OC(C)(CCCC(C)CCCC(C)CCCC(C)C)CC2` (stereo partly shown) [γ-Tocopheryl-glucopyranoside], 0 n mol/hour.
On to `CC(C)CCCC(C)CCCC(C)CCCC1(C)CCc2cc(O)ccc2O1` (stereo not shown) [Tocol], for which, in data set [1], the “Quantity of MDA released” value is reported as 6 ± 1.9 μg MDA.
Consider `Cc1c(C)c2c(c(C)c1O)CC[C@@](C)(CCC[C@H](C)CCC[C@H](C)CCCC(C)C)O2` [vitamin E, alpha-tocopherol], for which the “Release of the active agent from its glucosylated precursor” value at glucocerebrosidase is reported as “not released”. Moreover, the “Concentration of MDA released” value in data set [2] (0.05 % by mass vitamin E in the cream) turned out to be 1.2 ± 0.15 μg MDA/100 mg cream; in data set [2] (0.1 % by mass vitamin E in the cream), 1.9 ± 0.20 μg MDA/100 mg cream; in data set [2] (0.15 % by mass vitamin E in the cream), 2.0 ± 0.20 μg MDA/100 mg cream. The Pro-inflammatory effect entry in data set [2] (cream rich in polyunsaturated fatty acid) was “causes a pro-inflammatory effect”.
Consider `Cc1c(O)cc2c(c1C)O[C@](C)(CCC[C@H](C)CCC[C@H](C)CCCC(C)C)CC2` [γ-tocopherol], for which, on glucocerebrosidase, the “Release of the active agent from its glucosylated precursor” value is on record as “not released”.
Consider `CCCCCCCCCCCCCCCC(=O)Oc1c(C)c(C)c2c(c1C)CCC(C)(CCCC(C)CCCC(C)CCCC(C)C)O2` (stereo not drawn) [Vitamin E palmitate, alpha-tocopherol palmitate], for which the “Quantity of MDA released” value in data set [1] is 182.7 ± 39 μg MDA.
Turning to `Cc1cc(O[C@@H]2O[C@H](CO)[C@@H](O)[C@H](O)[C@H]2O)cc2c1O[C@](C)(CCC[C@H](C)CCC[C@H](C)CCCC(C)C)CC2` [Delta-tocopherol-glucopyranoside], on glucocerebrosidase, the “Quantity of molecule released” value was 14.3 ± 1 n mol/hour. Also, in data set [3], the “Amount of compound in the cream” value is listed as 311 ± 7 Micromoles. Besides, the “Quantity of MDA released” value in data set [1] is 128 ± 38 μg MDA.
On to `Cc1cc(O)cc2c1O[C@](C)(CCC[C@H](C)CCC[C@H](C)CCCC(C)C)CC2` [Delta-tocopherol, delta-tocopherol], for which the “Amount of compound in the cream” value in data set [3] was 310 ± 14 Micromoles. Further, the “Quantity of MDA released” value in data set [1] was 7.2 ± 1.7 μg MDA.
